Laboratory results reported in article PMC9851200, “Multiparameter phenotypic screening for endogenous TFEB and TFE3 translocation identifies novel chemical series modulating lysosome function” (Autophagy, 2022).
Where two headings read alike, the source gives them in different places.

Legend:
Test in all cases: biochemical
Format in all cases: binding
[1] = molecular target: T1, cellular kinases of SH-SY5Y cells (Homo sapiens, UniProt O95835); details: 2µM, SH-SY5Y cells, read-out: KiNativ in-cell binding, % Inhibition, LATS1
T1 construct: endogenous in cells; host or cells: SH-SY5Y
T1 sequence (O95835 whole entry): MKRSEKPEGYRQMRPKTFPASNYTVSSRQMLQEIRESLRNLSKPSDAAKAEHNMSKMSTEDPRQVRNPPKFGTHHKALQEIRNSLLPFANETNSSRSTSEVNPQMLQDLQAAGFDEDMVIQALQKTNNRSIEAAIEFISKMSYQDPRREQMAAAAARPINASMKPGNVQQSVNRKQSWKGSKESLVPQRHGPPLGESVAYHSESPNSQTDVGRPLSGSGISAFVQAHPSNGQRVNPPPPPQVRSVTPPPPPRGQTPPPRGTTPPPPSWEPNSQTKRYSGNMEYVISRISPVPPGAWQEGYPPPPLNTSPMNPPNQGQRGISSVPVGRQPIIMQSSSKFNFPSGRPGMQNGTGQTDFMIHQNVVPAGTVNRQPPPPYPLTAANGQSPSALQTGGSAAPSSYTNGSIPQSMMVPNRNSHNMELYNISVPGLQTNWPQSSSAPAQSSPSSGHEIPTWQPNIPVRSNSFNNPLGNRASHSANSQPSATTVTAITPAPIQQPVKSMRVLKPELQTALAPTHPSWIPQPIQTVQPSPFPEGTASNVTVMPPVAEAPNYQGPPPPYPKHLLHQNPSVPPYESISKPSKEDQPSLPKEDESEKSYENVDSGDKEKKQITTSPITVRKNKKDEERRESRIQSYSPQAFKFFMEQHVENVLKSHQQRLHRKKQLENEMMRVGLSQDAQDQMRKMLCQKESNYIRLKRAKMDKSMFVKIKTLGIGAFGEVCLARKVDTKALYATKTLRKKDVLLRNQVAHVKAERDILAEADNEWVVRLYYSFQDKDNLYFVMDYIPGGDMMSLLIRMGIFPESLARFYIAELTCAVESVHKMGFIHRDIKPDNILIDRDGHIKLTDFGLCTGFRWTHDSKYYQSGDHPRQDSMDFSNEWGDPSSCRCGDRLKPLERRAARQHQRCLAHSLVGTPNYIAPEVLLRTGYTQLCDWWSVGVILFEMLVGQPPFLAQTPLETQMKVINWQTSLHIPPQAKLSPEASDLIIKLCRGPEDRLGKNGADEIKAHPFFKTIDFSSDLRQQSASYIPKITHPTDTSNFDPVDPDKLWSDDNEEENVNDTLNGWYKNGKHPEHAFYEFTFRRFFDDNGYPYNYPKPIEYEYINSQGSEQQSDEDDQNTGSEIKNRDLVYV
Description: (§1) As KINOMEscan is an in vitro assay, and as different cell types have variable kinase expression profiles we sought to determine the kinase binding profile in our SH-SY5Y TFEB-relocalization cell model. […] Bound kinases were pulled down and analyzed by mass spectrometry to determine the in situ kinase binding profile for each compound.

[2] = molecular target: cellular kinases of SH-SY5Y cells (Homo sapiens, UniProt P41743); details: 2µM; SH-SY5Y cells; Labeling Site Lys1; IYAMKVVK; read-out: KiNativ in-cell binding, % Inhibition, PRKCI/PKCi
Description: as §1

[3] = molecular target: T2, cellular kinases of SH-SY5Y cells (Homo sapiens, UniProt Q9Y2I7); details: 2µM; SH-SY5Y cells; Labeling Site ATP; GGKSGAAFYATEDDRFILK; read-out: KiNativ in-cell binding, % Inhibition, PIKFYVE
T2 construct: endogenous in cells; host or cells: SH-SY5Y
Description: as §1

[4] = molecular target: cellular kinases of SH-SY5Y cells (Homo sapiens, UniProt P06493); details: 2µM; SH-SY5Y cells; Labeling Site Lys2; DLKPQNLLIDDK; read-out: KiNativ in-cell binding, % Inhibition, CDK1/CDC2
cellular kinases of SH-SY5Y cells (Homo sapiens, UniProt P06493), sequence (P06493 whole entry): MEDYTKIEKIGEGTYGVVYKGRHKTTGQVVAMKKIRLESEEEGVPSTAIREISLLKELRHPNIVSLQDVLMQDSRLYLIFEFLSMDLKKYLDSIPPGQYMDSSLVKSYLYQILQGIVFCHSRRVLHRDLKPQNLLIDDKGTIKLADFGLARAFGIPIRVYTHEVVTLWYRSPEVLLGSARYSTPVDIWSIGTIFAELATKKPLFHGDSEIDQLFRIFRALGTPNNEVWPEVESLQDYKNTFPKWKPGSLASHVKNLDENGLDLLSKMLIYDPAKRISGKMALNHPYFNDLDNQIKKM
Description: as §1

[5] = molecular target: cellular kinases of SH-SY5Y cells (Homo sapiens, UniProt P11802); details: 2µM; SH-SY5Y cells; Labeling Site Lys2; DLKPENILVTSGGTVK; read-out: KiNativ in-cell binding, % Inhibition, CDK4
cellular kinases of SH-SY5Y cells (Homo sapiens, UniProt P11802), sequence (P11802 whole entry): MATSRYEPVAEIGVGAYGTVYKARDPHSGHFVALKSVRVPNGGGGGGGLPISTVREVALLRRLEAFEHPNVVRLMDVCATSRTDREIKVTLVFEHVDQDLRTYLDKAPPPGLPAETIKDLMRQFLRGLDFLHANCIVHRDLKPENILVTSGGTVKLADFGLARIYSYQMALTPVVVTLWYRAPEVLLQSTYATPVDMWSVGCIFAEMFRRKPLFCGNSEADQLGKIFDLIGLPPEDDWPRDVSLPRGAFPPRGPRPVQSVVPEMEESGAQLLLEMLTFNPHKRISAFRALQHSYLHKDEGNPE
Description: as §1

[6] = molecular target: cellular kinases of SH-SY5Y cells (Homo sapiens, UniProt Q2M2I8); details: 2µM; SH-SY5Y cells; labeling site Lys2; peptide DLKVENILLHDR
Description: as §1

[7] = molecular target: T3, cellular kinases of SH-SY5Y cells (Homo sapiens, UniProt P51956); details: 2µM; SH-SY5Y cells; Labeling Site Activation Loop; SKNIFLTQNGK; read-out: KiNativ in-cell binding, % Inhibition, NEK3
T3 construct: endogenous in cells; host or cells: SH-SY5Y
Description: as §1

[8] = molecular target: cellular kinases of SH-SY5Y cells (Homo sapiens, UniProt P10398); details: 2µM; SH-SY5Y cells; Labeling Site Lys2; DLKSNNIFLHEGLTVK; read-out: KiNativ in-cell binding, % Inhibition, ARAF
cellular kinases of SH-SY5Y cells (Homo sapiens, UniProt P10398), sequence (P10398 whole entry): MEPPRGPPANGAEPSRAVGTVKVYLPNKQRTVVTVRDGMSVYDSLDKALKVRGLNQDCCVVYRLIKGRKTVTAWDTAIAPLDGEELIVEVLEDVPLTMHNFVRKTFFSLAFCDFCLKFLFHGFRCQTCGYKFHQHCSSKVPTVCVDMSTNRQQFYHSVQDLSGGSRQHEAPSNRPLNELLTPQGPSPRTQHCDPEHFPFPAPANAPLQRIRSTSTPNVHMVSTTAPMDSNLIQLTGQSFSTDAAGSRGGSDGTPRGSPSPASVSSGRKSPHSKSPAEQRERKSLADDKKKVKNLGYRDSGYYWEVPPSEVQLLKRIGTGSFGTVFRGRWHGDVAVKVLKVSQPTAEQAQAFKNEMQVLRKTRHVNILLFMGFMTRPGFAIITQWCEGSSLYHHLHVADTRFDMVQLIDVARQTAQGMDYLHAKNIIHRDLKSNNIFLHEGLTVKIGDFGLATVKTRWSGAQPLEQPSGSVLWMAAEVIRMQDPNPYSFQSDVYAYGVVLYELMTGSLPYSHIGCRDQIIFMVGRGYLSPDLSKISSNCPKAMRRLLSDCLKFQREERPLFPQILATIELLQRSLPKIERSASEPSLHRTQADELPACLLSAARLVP
Description: as §1

[9] = molecular target: cellular kinases of SH-SY5Y cells (Homo sapiens, UniProt Q05397); details: 2µM, SH-SY5Y cells, read-out: KiNativ in-cell binding, % Inhibition, PTK2/FAK
cellular kinases of SH-SY5Y cells (Homo sapiens, UniProt Q05397), sequence (Q05397 whole entry): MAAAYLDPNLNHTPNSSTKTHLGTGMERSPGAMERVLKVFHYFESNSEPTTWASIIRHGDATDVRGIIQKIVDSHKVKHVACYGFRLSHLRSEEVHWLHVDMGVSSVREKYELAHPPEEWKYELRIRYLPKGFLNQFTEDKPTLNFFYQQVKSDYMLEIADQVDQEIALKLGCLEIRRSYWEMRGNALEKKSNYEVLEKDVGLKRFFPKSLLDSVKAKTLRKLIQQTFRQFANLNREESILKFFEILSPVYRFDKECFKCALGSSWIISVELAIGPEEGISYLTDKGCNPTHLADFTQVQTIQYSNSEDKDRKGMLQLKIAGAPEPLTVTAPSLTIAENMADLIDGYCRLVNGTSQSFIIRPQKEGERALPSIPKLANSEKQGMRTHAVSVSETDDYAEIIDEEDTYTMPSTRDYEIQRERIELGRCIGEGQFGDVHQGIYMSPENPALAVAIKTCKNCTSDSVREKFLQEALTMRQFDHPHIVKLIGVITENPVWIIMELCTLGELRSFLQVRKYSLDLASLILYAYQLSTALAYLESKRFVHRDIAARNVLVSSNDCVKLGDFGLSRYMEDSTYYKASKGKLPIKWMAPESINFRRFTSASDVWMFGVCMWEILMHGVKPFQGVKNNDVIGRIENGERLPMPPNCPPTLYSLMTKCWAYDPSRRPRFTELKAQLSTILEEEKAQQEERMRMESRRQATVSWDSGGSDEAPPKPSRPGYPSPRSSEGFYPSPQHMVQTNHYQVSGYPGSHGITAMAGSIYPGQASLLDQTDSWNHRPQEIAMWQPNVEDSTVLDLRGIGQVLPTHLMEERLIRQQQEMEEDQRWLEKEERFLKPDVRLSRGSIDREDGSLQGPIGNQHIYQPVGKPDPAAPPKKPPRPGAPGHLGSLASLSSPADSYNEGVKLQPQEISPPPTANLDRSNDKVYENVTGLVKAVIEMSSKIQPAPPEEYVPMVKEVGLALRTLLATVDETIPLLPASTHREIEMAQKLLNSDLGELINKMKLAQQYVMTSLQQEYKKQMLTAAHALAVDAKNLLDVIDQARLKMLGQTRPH
Description: as §1

[10] = molecular target: cellular kinases of SH-SY5Y cells (Homo sapiens, UniProt O14757); details: 2µM; SH-SY5Y cells; Labeling Site Lys2; DIKPENLLLDER; read-out: KiNativ in-cell binding, % Inhibition, CHEK1/CHK1
Description: as §1

[11] = molecular target: cellular kinases of SH-SY5Y cells (Homo sapiens, UniProt Q16584); details: 2µM; SH-SY5Y cells; labeling site Lys2; peptide DLKSNNILLLQPIESDDMEHK
Description: as §1

[12] = molecular target: T4, cellular kinases of SH-SY5Y cells (Homo sapiens, UniProt Q92918); details: 2µM, SH-SY5Y cells, read-out: KiNativ in-cell binding, % Inhibition, MAP4K1/HPK1
T4 construct: endogenous in cells; host or cells: SH-SY5Y
T4 sequence (Q92918 whole entry): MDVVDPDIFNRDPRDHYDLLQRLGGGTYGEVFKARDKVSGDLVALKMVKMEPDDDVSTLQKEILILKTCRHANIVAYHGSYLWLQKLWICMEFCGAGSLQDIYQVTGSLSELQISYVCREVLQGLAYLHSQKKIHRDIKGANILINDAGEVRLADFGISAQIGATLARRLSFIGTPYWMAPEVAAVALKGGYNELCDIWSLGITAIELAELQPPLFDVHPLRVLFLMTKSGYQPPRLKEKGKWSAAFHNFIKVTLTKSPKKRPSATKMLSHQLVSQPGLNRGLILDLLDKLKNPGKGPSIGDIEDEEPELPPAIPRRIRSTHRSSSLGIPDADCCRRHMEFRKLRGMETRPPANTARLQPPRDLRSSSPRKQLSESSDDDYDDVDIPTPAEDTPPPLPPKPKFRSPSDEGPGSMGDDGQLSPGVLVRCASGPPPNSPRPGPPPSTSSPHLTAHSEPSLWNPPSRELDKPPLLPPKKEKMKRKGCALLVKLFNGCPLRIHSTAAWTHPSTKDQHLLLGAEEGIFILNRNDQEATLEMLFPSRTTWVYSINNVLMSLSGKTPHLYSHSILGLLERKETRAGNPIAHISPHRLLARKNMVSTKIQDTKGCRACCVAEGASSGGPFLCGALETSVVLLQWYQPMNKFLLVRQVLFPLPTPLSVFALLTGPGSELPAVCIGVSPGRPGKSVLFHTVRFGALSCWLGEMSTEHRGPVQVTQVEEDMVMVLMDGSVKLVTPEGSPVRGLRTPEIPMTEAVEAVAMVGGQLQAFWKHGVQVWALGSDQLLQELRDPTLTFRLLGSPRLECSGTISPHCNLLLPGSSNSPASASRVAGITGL
Description: as §1

[13] = molecular target: T5, cellular kinases of SH-SY5Y cells (Homo sapiens, UniProt P78356); details: 2µM; SH-SY5Y cells; Labeling Site ATP; AKDLPTFKDNDFLNEGQK; read-out: KiNativ in-cell binding, % Inhibition, PIP4K2B
T5 construct: endogenous in cells; host or cells: SH-SY5Y
Description: as §1

[14] = molecular target: T6, cellular kinases of SH-SY5Y cells (Homo sapiens, UniProt Q14004); details: read-out: KiNativ in-cell binding, % Inhibition, CDK13/CHED
T6 construct: endogenous in cells; host or cells: SH-SY5Y
Description: as §1

[15] = molecular target: cellular kinases of SH-SY5Y cells (Homo sapiens, UniProt O00418); details: 2µM; SH-SY5Y cells; Labeling Site ATP; YIKYNSNSGFVR; read-out: KiNativ in-cell binding, % Inhibition, eEF2K
Description: as §1

[16] = molecular target: cellular kinases of SH-SY5Y cells (Homo sapiens, UniProt Q13464); details: 2µM; SH-SY5Y cells; Labeling Site Other; KLQLELNQER; read-out: KiNativ in-cell binding, % Inhibition, ROCK1
Description: as §1

[17] = molecular target: cellular kinases of SH-SY5Y cells (Homo sapiens, UniProt Q96L34); details: 2µM, SH-SY5Y cells, read-out: KiNativ in-cell binding, % Inhibition, MARK4
cellular kinases of SH-SY5Y cells (Homo sapiens, UniProt Q96L34), sequence (Q96L34 whole entry): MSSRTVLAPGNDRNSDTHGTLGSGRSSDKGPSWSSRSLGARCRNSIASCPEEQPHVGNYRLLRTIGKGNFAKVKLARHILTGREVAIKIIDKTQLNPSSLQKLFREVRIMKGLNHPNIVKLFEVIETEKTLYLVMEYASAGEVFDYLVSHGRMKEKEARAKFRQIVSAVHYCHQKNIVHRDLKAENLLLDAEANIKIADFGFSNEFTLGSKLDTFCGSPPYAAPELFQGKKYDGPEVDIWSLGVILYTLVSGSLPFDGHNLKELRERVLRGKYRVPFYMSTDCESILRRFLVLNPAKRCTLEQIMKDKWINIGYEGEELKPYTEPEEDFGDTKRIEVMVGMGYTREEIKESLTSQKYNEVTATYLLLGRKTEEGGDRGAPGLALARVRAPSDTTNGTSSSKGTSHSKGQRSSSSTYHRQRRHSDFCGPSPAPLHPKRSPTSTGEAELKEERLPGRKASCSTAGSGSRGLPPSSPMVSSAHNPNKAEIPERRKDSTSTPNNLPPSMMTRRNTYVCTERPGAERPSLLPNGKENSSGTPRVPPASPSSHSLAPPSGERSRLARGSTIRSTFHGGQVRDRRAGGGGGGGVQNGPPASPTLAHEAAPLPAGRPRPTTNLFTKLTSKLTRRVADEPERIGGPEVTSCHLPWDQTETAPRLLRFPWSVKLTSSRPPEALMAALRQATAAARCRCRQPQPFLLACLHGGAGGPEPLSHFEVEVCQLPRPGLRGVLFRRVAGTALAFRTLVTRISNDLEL
Description: as §1

[18] = molecular target: T7, cellular kinases of SH-SY5Y cells (Homo sapiens, UniProt Q14680); details: 2µM; SH-SY5Y cells; Labeling Site Lys2; DLKPENLLFDEYHK; read-out: KiNativ in-cell binding, % Inhibition, MELK
T7 construct: endogenous in cells; host or cells: SH-SY5Y
Description: as §1

[19] = molecular target: T8, cellular kinases of SH-SY5Y cells (Homo sapiens, UniProt Q9UL54); details: 2µM; SH-SY5Y cells; Labeling Site Lys2; DVKAGNILLSEPGLVK; read-out: KiNativ in-cell binding, % Inhibition, TAOK2/TAO2
T8 construct: endogenous in cells; host or cells: SH-SY5Y
Description: as §1

[20] = molecular target: T9, cellular kinases of SH-SY5Y cells (Homo sapiens, UniProt P43403); details: 2µM; SH-SY5Y cells; Labeling Site Activation Loop; SAGKWPLK; read-out: KiNativ in-cell binding, % Inhibition, ZAP70
T9 construct: endogenous in cells; host or cells: SH-SY5Y
Description: as §1

`Cc1cccc(-c2nc(Nc3ccc4ncsc4c3)c3ccccc3n2)n1` [NK140] gave an inhibition at 2 µM ([1]; Labeling Site Lys1, ALYATKTLR) of 20.9%, an inhibition at 2 µM ([1]; Labeling Site Lys2, DIKPDNILIDR) of 19.3% and an inhibition at 2 µM [2] of -1.3%. It also gave an inhibition at 2 µM [3] of 15.6%, an inhibition at 2 µM [4] of -2.3% and an inhibition at 2 µM [5] of -19.8%. For the same molecule, the “KiNativ in-cell binding, AAK1” value [6] was -42.8, the inhibition at 2 µM [7] was -13.4% and the inhibition at 2 µM [8] was 28.7%. For the same molecule, the inhibition at 2 µM ([9]; Labeling Site Activation Loop, YMEDSTYYKASK) was 16.9%, the inhibition at 2 µM ([9]; Labeling Site Lys1, CIGEGQFGDVHQGIYMSPENPALAVAIKTCK) was 18% and the inhibition at 2 µM [10] was 16%. The “KiNativ in-cell binding, MAP3K11” value [11] was -55.2, the inhibition at 2 µM ([12]; Labeling Site Lys1, DKVSGDLVALKMVK) was 6.9% and the inhibition at 2 µM ([12]; Labeling Site Lys2, DIKGANILINDAGEVR) was 30.2%. The inhibition at 2 µM [13] was 27.3%, the inhibition at 2 µM [14] was -3.7% and the inhibition at 2 µM [15] was 26%. The inhibition at 2 µM [16] was 1.3%, the inhibition at 2 µM ([17]; Labeling Site Lys1, EVAIKIIDKTQLNPSSLQK) was 7.2% and the inhibition at 2 µM ([17]; Labeling Site Lys2, DLKAENLLLDAEANIK) was 11.5%. The inhibition at 2 µM [18] was -40.7%, the inhibition at 2 µM [19] was 23.9% and the inhibition at 2 µM [20] was -3%.
